Values quoted from earlier work, collected in patent US20190154648A1, “METHODS OF ATTENUATING DRUG EXCIPIENT CROSS REACTIVITY” (Chesapeake Therapeutics, LLC, priority 2016, published 2019).
Structures can show the parent of a compound that is named as a salt.

Assays:
[1] = in vivo

OCCOCCN1CCN(C2=Nc3ccccc3Sc3ccccc32)CC1 [quetiapine fumarate]
single-dose toxicity [1]: low
mechanistically unexplainable side effects in repeat-dose toxicity studies (nonhuman primates): pigmentation of the thyroid, transient increases in heart rate, posterior triangular cataracts, and reduced lymphocyte count
